Experiments:
Assay type in all cases: cell-based
[1] = target: T1, HCN1 (Homo sapiens, UniProt O60741); test: HCN1 automated patch clamp current inhibition assay (Ionworks Barracuda); conditions: HEK-293 cells stably expressing HCN1; current inhibition during a hyperpolarizing pulse of -100 mV
T1 construct: expressed in transfected cells
T1 sequence (O60741 1-890): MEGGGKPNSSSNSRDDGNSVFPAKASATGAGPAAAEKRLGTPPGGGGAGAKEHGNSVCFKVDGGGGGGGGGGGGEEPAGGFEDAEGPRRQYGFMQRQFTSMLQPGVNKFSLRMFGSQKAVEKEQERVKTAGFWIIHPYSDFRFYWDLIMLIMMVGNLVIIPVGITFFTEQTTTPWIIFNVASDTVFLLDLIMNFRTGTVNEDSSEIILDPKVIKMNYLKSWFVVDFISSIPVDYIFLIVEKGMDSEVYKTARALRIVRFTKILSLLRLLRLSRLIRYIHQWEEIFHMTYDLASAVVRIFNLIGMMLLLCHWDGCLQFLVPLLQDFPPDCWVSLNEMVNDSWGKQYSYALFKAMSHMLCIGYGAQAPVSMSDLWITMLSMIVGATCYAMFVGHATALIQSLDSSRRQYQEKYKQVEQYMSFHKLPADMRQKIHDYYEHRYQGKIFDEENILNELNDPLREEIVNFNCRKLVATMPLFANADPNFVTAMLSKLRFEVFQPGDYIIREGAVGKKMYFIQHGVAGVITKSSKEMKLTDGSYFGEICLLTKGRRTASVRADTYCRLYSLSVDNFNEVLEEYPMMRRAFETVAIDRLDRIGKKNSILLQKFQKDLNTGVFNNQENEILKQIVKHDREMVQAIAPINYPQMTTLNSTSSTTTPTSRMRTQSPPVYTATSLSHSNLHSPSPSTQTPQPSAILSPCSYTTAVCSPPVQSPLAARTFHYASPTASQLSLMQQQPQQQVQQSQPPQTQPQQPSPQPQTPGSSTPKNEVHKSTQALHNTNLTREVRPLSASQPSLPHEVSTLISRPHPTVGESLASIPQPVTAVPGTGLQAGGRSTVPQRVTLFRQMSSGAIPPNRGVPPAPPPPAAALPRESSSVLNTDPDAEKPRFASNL
Experimental: (§1) In vitro, high-throughput cellular electrophysiology was employed to detect voltage- and use-dependence of compounds in single concentration screening and IC50 determination for library and medicinal chemistry profiling compounds in 384 well plates.
(§2) Cell cultures were maintained in DMEM/F12 cell growth media containing FBS and appropriate antibiotics at 37° C., 5% CO2 for a maximum of 20 passages. At a time point of 40-72 hours prior to assay, the expression of HCN protein in the cells is induced by addition of tetracyclin. Cells may be incubated at 27° C. for 2-24 hours of induction. […] Cells were harvested at 80% confluency and resuspended in extracellular buffer and added to wells. A freshly prepared Escin solution was added to intracellular buffer and applied to establish whole cell recording via perforated patch clampling by APC.
(§3) Currents through activated channels were measured directly by APC by employing hyperpolarizing voltage steps. The activation window was increased and stabilized by the addition of cell permeable Br-cAMP. Baselines were established for both use- and voltage-dependence protocols using a −30 mV holding potential and multiple test pulses at −100 mV or by 20 mV steps from −120 to 0 mV, respectively. Test compounds were added after baseline recordings followed by a 10 min incubation, voltage-dependency protocol recording, and use-dependency recording. Data was corrected for baseline and rundown (well based) and normalized for % inhibition (plate based). Five previously reported HCN inhibitors of varying potencies and selectivities and zatebradine were used for run to run and plate to plate quality controls. […] Percent inhibition was analysed at −80, −100, −120 mV of the voltage-dependency protocol and at pulse 0 and 50 of the use-dependency protocols. Selectivity was assessed against HCN2, HCN3, and HCN4 overexpressing cell lines using similar methods. As HCN4 has a slower activation than the other HCN channels, activation was extended to achieve steady state activation.

[2] = target: T2, HCN2 (Homo sapiens, UniProt Q9UL51); test: HCN2 automated patch clamp current inhibition assay (Ionworks Barracuda); conditions: HEK-293 cells stably expressing HCN2; current inhibition during a hyperpolarizing pulse of -100 mV
T2 construct: expressed in transfected cells
T2 sequence (Q9UL51 1-889): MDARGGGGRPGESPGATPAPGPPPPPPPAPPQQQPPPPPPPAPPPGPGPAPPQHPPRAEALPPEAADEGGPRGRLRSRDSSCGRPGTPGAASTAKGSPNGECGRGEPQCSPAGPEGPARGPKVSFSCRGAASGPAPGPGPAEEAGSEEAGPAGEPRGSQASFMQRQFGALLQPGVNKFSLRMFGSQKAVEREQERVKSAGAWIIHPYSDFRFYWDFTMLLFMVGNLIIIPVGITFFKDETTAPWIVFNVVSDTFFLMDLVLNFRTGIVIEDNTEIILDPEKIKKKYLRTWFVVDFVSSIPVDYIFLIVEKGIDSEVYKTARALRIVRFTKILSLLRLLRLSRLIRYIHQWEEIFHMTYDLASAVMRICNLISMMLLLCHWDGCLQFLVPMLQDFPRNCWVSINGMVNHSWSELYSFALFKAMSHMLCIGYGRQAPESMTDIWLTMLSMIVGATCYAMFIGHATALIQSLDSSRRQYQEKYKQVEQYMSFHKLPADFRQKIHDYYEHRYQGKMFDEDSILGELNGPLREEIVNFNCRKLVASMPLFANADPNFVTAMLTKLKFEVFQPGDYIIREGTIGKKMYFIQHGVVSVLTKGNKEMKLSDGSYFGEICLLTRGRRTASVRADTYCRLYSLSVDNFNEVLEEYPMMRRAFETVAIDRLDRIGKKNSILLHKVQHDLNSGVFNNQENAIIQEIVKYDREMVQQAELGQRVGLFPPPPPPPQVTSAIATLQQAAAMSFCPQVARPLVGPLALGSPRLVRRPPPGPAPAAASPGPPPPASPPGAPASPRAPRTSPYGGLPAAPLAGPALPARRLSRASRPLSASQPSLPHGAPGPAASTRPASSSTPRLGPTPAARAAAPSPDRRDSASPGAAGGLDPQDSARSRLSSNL
Experimental: as §1, §2, §3

[3] = target: T3, HCN4 (Homo sapiens, UniProt Q9Y3Q4); test: HCN4 automated patch clamp current inhibition assay (Ionworks Barracuda); conditions: HEK-293 cells stably expressing HCN4; current inhibition during a hyperpolarizing pulse of -100 mV
T3 construct: expressed in transfected cells
T3 sequence (Q9Y3Q4 1-1203): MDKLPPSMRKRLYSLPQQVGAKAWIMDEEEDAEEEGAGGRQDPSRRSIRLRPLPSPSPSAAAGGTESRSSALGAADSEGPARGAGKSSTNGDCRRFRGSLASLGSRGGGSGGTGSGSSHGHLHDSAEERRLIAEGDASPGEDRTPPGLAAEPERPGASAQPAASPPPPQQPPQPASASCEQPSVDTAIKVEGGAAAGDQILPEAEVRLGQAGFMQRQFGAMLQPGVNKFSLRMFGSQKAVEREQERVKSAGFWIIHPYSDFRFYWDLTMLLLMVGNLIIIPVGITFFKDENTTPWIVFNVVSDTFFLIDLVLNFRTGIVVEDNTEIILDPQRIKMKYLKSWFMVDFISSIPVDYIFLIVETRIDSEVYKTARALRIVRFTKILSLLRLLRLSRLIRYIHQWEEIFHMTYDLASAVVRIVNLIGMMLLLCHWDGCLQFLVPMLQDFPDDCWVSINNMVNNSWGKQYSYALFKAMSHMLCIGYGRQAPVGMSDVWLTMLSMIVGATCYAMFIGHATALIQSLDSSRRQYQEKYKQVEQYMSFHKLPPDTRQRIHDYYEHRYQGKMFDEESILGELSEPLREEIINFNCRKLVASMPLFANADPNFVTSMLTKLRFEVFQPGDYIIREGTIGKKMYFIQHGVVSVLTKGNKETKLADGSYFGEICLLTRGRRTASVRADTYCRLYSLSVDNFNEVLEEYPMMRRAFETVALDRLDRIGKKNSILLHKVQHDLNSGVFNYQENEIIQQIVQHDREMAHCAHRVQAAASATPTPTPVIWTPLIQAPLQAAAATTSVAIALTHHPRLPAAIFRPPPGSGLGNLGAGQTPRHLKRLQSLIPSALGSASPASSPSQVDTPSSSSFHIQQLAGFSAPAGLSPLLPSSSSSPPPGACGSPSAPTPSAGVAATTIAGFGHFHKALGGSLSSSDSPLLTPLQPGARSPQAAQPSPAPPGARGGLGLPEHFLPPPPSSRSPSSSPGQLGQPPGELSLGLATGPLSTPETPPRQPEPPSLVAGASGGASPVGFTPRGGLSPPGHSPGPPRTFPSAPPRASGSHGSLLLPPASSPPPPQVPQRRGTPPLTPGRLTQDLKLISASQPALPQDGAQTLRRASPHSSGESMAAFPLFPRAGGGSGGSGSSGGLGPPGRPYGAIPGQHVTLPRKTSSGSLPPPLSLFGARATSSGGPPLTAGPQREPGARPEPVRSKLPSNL
Experimental: as §1, §2, §3

IC50 [1]	IC50 [2]	IC50 [3]	Compound
0.297 µM	> 40 µM	> 40 µM	Cc1ccc(-n2c(C(N)=O)nc(C#Cc3cc(Cl)ncc3F)c2C)cn1 [Example 7, 4-((2-Chloro-5-fluoropyridin-4-yl)ethynyl)-5-methyl-1-(6-methylpyridin-3-yl)-1H-imidazole-2-carboxamide]
0.518 µM	> 40 µM	> 40 µM	Cc1ccc(-n2c(C(N)=O)nc(C#Cc3ccc(Cl)cc3)c2C)cn1 [Example 9, 4-[2-(4-Chlorophenyl)ethynyl]-5-methyl-1-(6-methyl-3-pyridyl)imidazole-2-carboxamide]
0.833 µM	> 40 µM	> 40 µM	Cc1ccc(-n2c(C(N)=O)nc(C#Cc3ccnc(C(F)(F)F)c3)c2C)cn1 [Example 11, 5-Methyl-1-(6-methylpyridin-3-yl)-4-((2-(trifluoromethyl)pyridin-4-yl)ethynyl)-1H-imidazole-2-carboxamide]
1.01 µM	> 40 µM	> 40 µM	Cc1ccc(-n2c(C(N)=O)nc(C#Cc3ccnc(F)c3)c2C)cn1 [Example 12, 4-[2-(2-Fluoro-4-pyridyl)ethynyl]-5-methyl-1-(6-methyl-3-pyridyl)imidazole-2-carboxamide]
2.39 µM	> 40 µM	> 40 µM	Cc1ccc(-n2c(C(N)=O)nc(C#Cc3ccnc(Cl)n3)c2C)cn1 [Example 15, 4-((2-Chloropyrimidin-4-yl)ethynyl)-5-methyl-1-(6-methylpyridin-3-yl)-1H-imidazole-2-carboxamide]
2.4 µM	> 40 µM	> 40 µM	Cc1ccc(-n2c(C(N)=O)nc(C#Cc3ccncc3F)c2C)cn1 [Example 16, 4-((3-Fluoropyridin-4-yl)ethynyl)-5-methyl-1-(6-methylpyridin-3-yl)-1H-imidazole-2-carboxamide]
3.02 µM	> 40 µM	> 40 µM	Cc1ccc(-n2c(C(N)=O)nc(C#Cc3cncc(Cl)c3)c2C)cn1 [Example 17, 4-[2-(5-Chloro-3-pyridyl)ethynyl]-5-methyl-1-(6-methyl-3-pyridyl)imidazole-2-carboxamide]
6.47 µM		> 40 µM	Cc1ccc(-n2c(C(N)=O)nc(C#Cc3cc(Cl)ncn3)c2C)cn1 [Example 19, 4-((6-Chloropyrimidin-4-yl)ethynyl)-5-methyl-1-(6-methylpyridin-3-yl)-1H-imidazole-2-carboxamide]
8.59 µM	> 40 µM	> 40 µM	Cc1ccc(-n2c(C(N)=O)nc(C#Cc3cccnc3)c2C)cn1 [Example 20, 5-Methyl-1-(6-methyl-3-pyridyl)-4-[2-(3-pyridyl)ethynyl]imidazole-2-carboxamide]
6.03 µM	> 40 µM	> 40 µM	Cc1ccc(-n2c(C(N)=O)nc(C#Cc3ccnc(C)c3)c2C)cn1 [Example 22, 5-Methyl-1-(6-methylpyridin-3-yl)-4-((2-methylpyridin-4-yl)ethynyl)-1H-imidazole-2-carboxamide]
0.15 µM	> 40 µM	> 40 µM	Cc1ccc(-n2c(C(N)=O)nc(C#Cc3ccnc(Cl)c3C)c2C)nn1 [Example 24, 4-[2-(2-Chloro-3-methyl-4-pyridyl)ethynyl]-5-methyl-1-(6-methylpyridazin-3-yl)imidazole-2-carboxamide]
0.087 µM		> 40 µM	Cc1c(Cl)cccc1C#Cc1nc(C(N)=O)n(-c2cccnc2)c1C [Example 30, 4-[2-(3-Chloro-2-methyl-phenyl)ethynyl]-5-methyl-1-(3-pyridyl)imidazole-2-carboxamide]
3.16 µM	> 40 µM	> 40 µM	Cc1c(C#Cc2ccnc(Cl)c2)nc(C(N)=O)n1-c1cccc(Cl)c1 [Example 40, 1-(3-Chlorophenyl)-4-((2-chloropyridin-4-yl)ethynyl)-5-methyl-1H-imidazole-2-carboxamide]

Reference: US12528784B2, “Alkynyl-(heteroaryl)-carboxamide HCN1 inhibitors” (Hoffmann-La Roche Inc., priority 2019, dated 2026)
